From patent US20220365085A1, “B[…], THE USE OF B[…], SENSORS […] WITH THE SAID B[…] AND THE DETECTION METHOD OF SARS-COV-2 VIRUS” (SENSDX SPÓLKA AKCYJNA, priority 2019, published 2022)
Numbered stars: 1 amine (or outer) side, 2 acyl side, 3 side chain; on linkers, the order of the positions; unused ones are H or OH. Square brackets hold non-standard residues; d marks the D form. Peptide text beside a SMILES is read from it. * marks the point of attachment. ξ: configuration not given here. X1 = O=C([C@@H](N[*:1])c1cnc[nH]1)[*:2]; Ile(3ξ) = CCC(C)[C@H](N)C(=O)O; Lauroyl = CCCCCCCCCCCC(=O)*

Target: WHN-N protein (SARS-CoV-2 nucleocapsid N protein) (Severe acute respiratory syndrome coronavirus 2, UniProt P0DTC9)
Assay type: binding

Q: `CCCCCCCCCCCC(=O)N[C@H](C(=O)N[C@H](C(=O)N[C@@H](CO)C(=O)N[C@@H](CC(N)=O)C(=O)N[C@@H](Cc1c[nH]cn1)C(=O)N[C@@H](CO)C(=O)N[C@@H](Cc1c[nH]cn1)C(=O)N[C@@H](Cc1c[nH]cn1)C(=O)N[C@@H](Cc1c[nH]cn1)C(=O)N[C@@H](CC(=O)O)C(=O)N[C@H](C(=O)N[C@@H](CC(C)C)C(N)=O)C(C)CC)C(C)CC)c1cnc[nH]1` (stereo partly drawn) [11-KOD1, 11-Mrcpt-HISNHSHHHDIL-NH2] (Lauroyl-[X1][Ile(3ξ)]SNHSHHHD[Ile(3ξ)]L-NH2) was tested. Which “specificity of the peptide sequence” value did it give?
A: specific for the WHN-N protein

Q: How did the “specificity of the peptide sequence” value turn out when `CCCCCCCCCCCC(=O)N[C@H](C(=O)N1CCC[C@H]1C(=O)N[C@H](C(=O)N[C@@H](Cc1ccc(O)cc1)C(=O)N[C@@H](Cc1c[nH]cn1)C(=O)N[C@@H](CCCCN)C(=O)N[C@@H](CC(C)C)C(N)=O)C(C)CC)[C@@H](C)O` (some centres unmarked) [11-KOD7, 11-Mrcpt-TPIYHKL-NH2] (Lauroyl-TP[Ile(3ξ)]YHKL-NH2) was run?
A: specific for SARS-CoV-2 virus
